In patent US5878747A, “Condom coated with acidic polysaccharides” (Fuji Latex Co., Ltd., priority 1993, dated 1999):

System: AMV (avian myeloblastosis virus) reverse transcriptase
Assay: AMV reverse transcriptase inhibition ([3H]dTTP incorporation)
Type: biochemical
Conditions: 1 Inhibition unit = activity which inhibits 1 unit of reverse transcriptase activity to 50%
Description: 1 unit of AMV (avian myeloblastosis virus) reverse transcriptase was mixed with 50 μl of a mixture (50 mM tris hydrochloride, pH 8.4, 2 mM dithiothreitol, 100 mM KCl, 10 mM MgCl2, 0.1% triton X-100, 50 μg poly (rA)-oligo (dT)/ml, 1.25 μCi [^3 H] dTTP (57 Ci/mmol)) and with various concentration of various sulfated polysaccharides.
The reaction mixtures were incubated and stopped by the addition of 5% trichloroacetic acid. Precipitates were collected on glass fiber filters and their radio activities were determined by a liquid scintilation counter.
1 Inhibition unit is defined as an activity which inhibits 1 unit of reverse transcriptase activity to 50%.

Row | Substance | Inhibition Unit/mg [Inhibition Unit/mg]
1 | Chondroitin sulfate | 30
2 | Dermatan sulfate | 210
3 | Heparan sulfate | 50
4 | Heparin | 830
5 | Karatan sulfate | 30
6 | l-Carrageenan | 35810
7 | κ-Carrageenan | 30200
8 | λ-Carrageenan | 68320
